# How the values were obtained:
# P. falciparum 3D7 strain = assay: Malstat assay, asexual blood stages, CQ-sensitive strain 3D7; type: cell-based; conditions: Plasmodium falciparum, 3D7; for IC50: ring stage parasites, 72 h, Malstat (plasmodial LDH), read-out: IC50 (µM) CQ-Sensitive Strain 3D7; for IC90: 90% inhibitory concentration estimated from the IC50
# Description: (§1) Three P. falciparum strains were used for compound testing; a strain sensitive to chloroquine (CQ) 3D7, CQ-resistant strain Dd2 and P. falciparum gametocyte producing NF54 strain. The 3D7 and Dd2 strains were used to investigate the effect of the compounds on asexual blood stage replication. They were cultured in RPMI 1640/HEPES medium (Gibco, Thermo Scientific, Waltham, MA, USA) containing 10 µg/mL gentamicin (Gibco Thermo Scientific, Waltham, MA, USA,), 50 µg/mL hypoxanthine (Sigma-Aldrich, St. Louis, MO, USA), 0.5% v/v Albumax II (Gibco, Thermo Scientific, Waltham, MA, USA) and 5% hematocrit. Cultures were maintained at 37 °C using a gas mixture containing 5% CO2, 5% O2 and 90% N2. […] To obtain highly synchronized cultures, parasite cultures consisting mainly of ring stages were centrifuged, the pellet was resuspended in 10 mL of 5% w/v sorbitol/ddH20 and incubated for 10 min at room temperature. After washing the cells with RPMI to remove residual sorbitol, they were again cultivated, as described above. Erythrocyte concentrate and serum samples were obtained from the Department of Transfusion Medicine, University Hospital Aachen, Germany. The serum samples were mixed and pooled and donors were kept anonymous. The work with blood components from humans was approved by the Ethics commission of the RWTH University Hospital (EK 007/13).
# (§2) The antiplasmodial effect of the compounds on P. falciparum asexual blood stage development was carried out using the Malstat assay, as described previously. Compounds dissolved in dimethyl sulfoxide (DMSO) were added to 1% ring stage P. falciparum 3D7 and Dd2 cultures (200 µL/well) in a 96-well plate in triplicate at final concentrations ranging from 100 µM to 0.78 µM. […] CQ at concentrations ranging from 500 nM to 4 nM was used as an internal control in the experiments, while parasites treated with 0.5% v/v DMSO served as the negative control. The parasites were cultured with the compounds for 72 h at 37 °C in the presence of the following gas combination: 5% O2, 5% CO2, and 90% N2. Afterwards, 20 µL of the incubated culture was removed and 100 µL of Malstat reagent (0.1% v/v Triton X-100, 1 g of L-lactate, 0.33 g Tris and 33 mg of 3-acetylpyridine adenine dinucleotide in 100 mL of distilled water, pH 9.0) was added in a new 96-well microtiter plate. Next, 20 µL mixture of NBT/Diaphorase (1:1; 1 mg/mL stock each) was added to the Malstat reaction and the parasite lactate dehydrogenase activity was then quantified by measuring the optical densities at 630 nm. IC50 values were then determined from variable-slope sigmoidal dose-response graphs using the GraphPad Prism program version 5 (GraphPad Software Inc., La Jolla, San Diego, CA, USA).
# [1] = tested on: non-infected erythrocytes; assay: Hemolytic assay; type: cell-based, human; conditions: IC50 and IC90 concentrations, 48 h, 37 °C, compared with 0.5% v/v DMSO
# Description: Since the malaria parasite replicates in the red blood cell, we determined if the compounds have an effect on non-infected erythrocytes using hemolytic assays. To this end, 1 mL of washed uninfected erythrocytes at 5% hematocrit in regular medium was plated in triplicate in a 96-well plate (200 µL/well) in the presence of compounds at IC50 and IC90 concentrations. Erythrocytes treated with 0.15% w/v saponin were used as lysis control and 0.5% v/v DMSO was used as the negative control. Following 48 h of incubation at 37 °C, the plate was centrifuged at 500× g for 2 min and 100 µL of the supernatant was transferred to another plate and the absorbance was measured at 550 nm with a spectrophotometer.
# (§3) Figure 4 Hemolytic and cytotoxic effect of compounds. (a) Hemolytic effect of compounds. […] The absorbance of free hemoglobin was measured at OD550 nm in the supernatant and normalized to 0.15% w/v saponin (set to 100%), which served as positive control in the experiments. 0.5% v/v DMSO was used as negative control. (b) Cytotoxicity effect of compounds on Hela cells. The cells were plated in 96-well microtiter plates and cultured overnight at 37 °C. The following day, the old medium was removed and 100 µL of fresh medium containing serially diluted compounds in corresponding wells at final concentrations ranging from 100 µM to 0.8 µM was added and the culture was incubated for 72 h. After incubation, the medium was replaced by 100 µL fresh drug-free medium and 20 µL MTT (5 mg/mL) was added in each well and incubated for 3 h at 37 °C. After 3 h, the MTT preparation was then removed from each well and 100 µL solubilization solution was added. Plates were then placed on a rotator at about 500 rpm at RT until the formazan precipitate was completely resuspended and the OD was measured at 450 nm. The data are representative of three independent experiments.
# [2] = MTT cytotoxicity assay, Hela cells; type: cell-based; conditions: human, Hela cells (human cervical cancer cell line); for viability at 72 h: about 25 µM
# Description: The MTT [3-(4,5-dimethylthiazol-2-yl)-2,5-diphenyltetrazolium bromide] assay was performed using the human cervical cancer cell (Hela) line and the hematologic malignancy human erythroleukemia (HEL) cell line to determine if the compounds were toxic (loss of viability) against human cells. MTT is taken up by viable cells and converted by mitochondrial dehydrogenases to a violet formazan product that cannot diffuse through cell membranes, and therefore crystallizes in viable cells. The adherent Hela cells were plated in 96-well microtiter plates and cultured at 37 °C overnight. Compounds were added to the cultures in different serial concentrations in triplicate the next day, and the cells were incubated for 72 h. DMSO was used as the negative control at a final concentration of 0.5% v/v, and a concentration of 15% v/v DMSO which is toxic was added as the positive control. After 72 h of drug treatment, medium-containing drug was replaced with 100 µL fresh drug-free medium. Then, 20 µL MTT (5 mg/mL) was added to each well and incubated for 3 h at 37 °C. The medium was subsequently removed and 100 µL solubilization solution (5% w/v SDS, 0.1 M HCl in 100% vol. DMSO) was added and incubated for 30 min under rotation at room temperature to solubilize the formazan crystals.
# For both cell lines, the optical density (OD) of the solution was measured at 550 nm. The OD-values of cultures treated with compounds were normalized to the OD-values of 0.5% v/v DMSO control (set to 100% viability for Hela or 1 for HEL cell line). IC50 values were calculated from MTT assays using Graphpad Prism (V9).
# as §3
# [3] = tested on: P. falciparum NF54 gametocytes; assay: Gametocyte toxicity test; type: cell-based, Plasmodium falciparum; conditions: 48 h treatment, then 7 d drug-free
# Description: as §1
# P. falciparum NF54 parasites were cultured at high parasitemia to induce gametocyte formation. Once stage II gametocytes appeared, 1 mL of culture was aliquoted in triplicate in a 24-well plate with compounds at the respective IC50 and IC90 concentrations that was determined from Malstat assay. The gametocytes were again cultivated for 9 d with the daily replacement of medium. For the first 48 h of cultivation, the gametocytes were treated with test compounds, and subsequently compound free medium was used. On day 9, blood smears were prepared and stained with Giemsa and the gametocytemia was determined by counting the numbers of gametocytes stages IV and V in a total number of 1000 erythrocytes.
# Figure 3 Effect of organosulfur compounds on gametocyte development. Cultures rich in stage II gametocyte were incubated with compounds at IC50 and IC90 concentrations for 2 d, and again cultivated for another 7 d with daily replacement of medium. The numbers of stage IV and V gametocytes were determined from Giemsa smears and normalized to 0.5% v/v DMSO treatment which served as negative control (set to 100%). Epoxomicin (Epoxo) at 60 nM served as positive control.
# P. falciparum Dd2 strain = assay: Malstat assay, asexual blood stages, CQ-resistant strain Dd2; type: cell-based; conditions: Plasmodium falciparum, DD2; ring stage parasites, 72 h, Malstat; read-out: IC50 (µM) CQ-Resistant Strain Dd2
# Description: as §1, §2
smiles,measurement,setting,value
Cc1ccc2c(c1)C=C(c1ccccc1)N=S2(=O)N1CCCCCC1 (stereo not drawn) [Compound 12],IC50,P. falciparum 3D7 strain,21.3 ± 4.05 µM
O=S1(N2CCCCCC2)=NC(c2ccccc2)=Cc2cccc(Cl)c21 (stereo not drawn) [Compound 13],IC50,P. falciparum 3D7 strain,20.3 ± 1.69 µM
O=[N+]([O-])c1ccc2c(c1)C=C(c1ccccc1)N=S2(=O)N1CCCCCC1 (stereo not drawn) [Compound 14],IC50,P. falciparum 3D7 strain,10.3 ± 0.9 µM
CCOC(=O)C1=C(C)N=S(=O)(N2CCCCCC2)c2ccc([N+](=O)[O-])cc21 (stereo not drawn) [Compound 15],hemolytic effect,[1],no hemolytic effect
same,"viability at 72 h, 50 µM",[2],> 60%
same,viability at 72 h,[2],> 90%
same,IC50,P. falciparum 3D7 strain,5.2 ± 1.95 µM
same,IC90,P. falciparum 3D7 strain,46.8 µM
same,reduction of mature gametocyte numbers (in words),[3]; compound at IC50 concentration,only minor reduction
same,reduction in stage IV and V gametocyte numbers,[3]; compound at IC90 concentration,very high reduction
CCOC(=O)C1=C(c2ccc(C)cc2)N=S(=O)(N2CCCCCC2)c2ccccc21 (stereo not drawn) [Compound 16],IC50,P. falciparum Dd2 strain,4.4 ± 0.59 µM
same,hemolytic effect,[1],no hemolytic effect
same,"viability at 72 h, 50 µM",[2],> 60%
same,viability at 72 h,[2],> 90%
same,IC50,P. falciparum 3D7 strain,3.1 ± 0.26 µM
same,IC90,P. falciparum 3D7 strain,27.9 µM
same,reduction of mature gametocyte numbers,[3]; compound at IC50 concentration,about 50%
CCOC(=O)C1=C(c2ccc(C)cc2)N=S(=O)(N2CCCCCC2)c2ccc(C)cc21 (stereo not drawn) [Compound 17],IC50,P. falciparum Dd2 strain,4 ± 0.28 µM
same,hemolytic effect,[1],no hemolytic effect
same,"viability at 72 h, 50 µM",[2],> 60%
same,viability at 72 h,[2],> 90%
same,IC50,P. falciparum 3D7 strain,2.6 ± 0.7 µM
same,IC90,P. falciparum 3D7 strain,23.4 µM
same,reduction of mature gametocyte numbers,[3]; compound at IC50 concentration,about 50%
CCOC(=O)C1=C(c2ccccc2)N=S(=O)(N2CCCCCC2)c2ccccc21 (stereo not drawn) [Compound 18],IC50,P. falciparum 3D7 strain,26.5 ± 1.19 µM
CCOC(=O)C1=C(c2cccs2)N=S(=O)(N2CCCCCC2)c2ccccc21 (stereo not drawn) [Compound 19],IC50,P. falciparum 3D7 strain,31.5 ± 4.9 µM
CN1CCC[C@H](NC(=S)Nc2cc(C(F)(F)F)cc(C(F)(F)F)c2)C1 [Compound 20],IC50,P. falciparum 3D7 strain,8 ± 0.53 µM
CC(C)C[C@@H](CN=[S@](C)(=O)c1ccccc1)NC(=S)Nc1cc(C(F)(F)F)cc(C(F)(F)F)c1 [Compound 21],IC50,P. falciparum 3D7 strain,14.1 ± 1.5 µM
CC(C)[C@@H](CN=[S@@](C)(=O)c1ccccc1)NC(=S)Nc1cc(C(F)(F)F)cc(C(F)(F)F)c1 [Compound 22],IC50,P. falciparum 3D7 strain,15.9 ± 1.46 µM
O=[S@@]1(c2ccccc2)=Nc2ccccc2-c2ncc3ccccc3c21 [Compound 23],IC50,P. falciparum 3D7 strain,24.9 ± 1.06 µM
